Measurements: paper PMC10002375, “Synthesis of 3-(2-Alkylthio-4-chloro-5-methylbenzenesulfonyl)-2-(1-phenyl-3-arylprop-2-enylideneamino)guanidine Derivatives with Pro-Apoptotic Activity against Cancer Cells” (International Journal of Molecular Sciences, 2023)

Key:
Type in all cases: cell-based, human
HCT-116 cells [1] = test: Phosphatidylserine translocation (Annexin V-FITC/PI), HCT-116
Description: (§1) One of the early indicators of apoptosis is the exposure of phosphatidylserine residues on the cell’s surface. Annexin V has a high affinity to phosphatidylserine and, as a conjugate to fluorescein isothiocyante (FITC), is widely used for detection of early apoptotic cells using flow cytometry. Detection of late-apoptotic or necrotic cells is achieved by using propidium iodide (PI) stain. Based on the obtained fluorescence, four subpopulations were found: PI-low/FITC-low (live cells), PI-high/FITC-low (necrotic cells), PI-low/FITC-high (early apoptotic cells), and PI-high/FITC-high (late apoptotic cells).
(§2) Analysis was performed using FITC-conjugated annexin-V (Annexin V-FITC Apoptosis Kit I, BD Biosciences, San Jose, CA, USA) according to the manufacturer’s instructions (BD Biosciences) as described previously. HeLa, MCF-7, and HCT-116, after seeding to 24-well plates (5 × 10^4/per well) and 24 h incubation, were treated for 72 h with 24 or 31 (10/25 µM or 25 µM concentration respectively). Following treatment, cells were washed in PBS, centrifuged, and then resuspended in a binding buffer. Afterward, the cells were incubated for 15 min at 37 °C with FITC-conjugated annexin-V and propidium iodide. The samples were then analyzed using a LSR II flow cytometer (BD Biosciences) using 530 ± 25 nm (Annexin V-FITC) and 575 ± 26 nm (PI).
(§3) The subpopulations were identified according to their fluorescence: PI-low/FITC-low (live cells), PI-high/FITC-low (necrotic cells), PI-low/FITC-high (early apoptotic cells), and PI-high/FITC-high (late apoptotic cells).

MCF-7 (breast cancer) = test: MTT cell viability assay, MCF-7
Description: The cytotoxic activity of the compounds 8–33 has been evaluated in MTT assays against three human cancer cell lines MCF-7 (breast cancer), HeLa (cervical cancer), and HCT-116 (colon cancer) and it was expressed as IC50 values in μM (Table 1).
(§4) All chemicals, if not stated otherwise, were obtained from Sigma-Aldrich (St. Louis, MO, USA). The MCF-7 cell line was purchased from Cell Lines Services (Eppelheim, Germany), the HeLa and HCT-116 cell lines were obtained from the Department of Microbiology, Tumor and Cell Biology, Karolinska Institute (Stockholm, Sweden). Cells were cultured in Dulbecco’s modified Eagle’s medium (DMEM) supplemented with 10% fetal bovine serum, 2 mM glutamine, 100 units/mL penicillin, and 100 μg/mL streptomycin. Cultures were maintained in a humidified atmosphere with 5% CO2 at 37 °C in an incubator (HeraCell, Heraeus, Langenselbold, Germany).
(§5) Cell viability was determined using the MTT (3-(4,5-dimethylthiazol-2-yl)-2,5-diphenyl-tetrazoliumbromide) assay. Stock solutions of the studied compounds were prepared in 100% DMSO. […] Cells were seeded in 96-well plates at a density of 5 × 10^3 cells/well and treated for 72 h with the examined compounds in the concentration range 1–100 μM (1, 10, 25, 50, and 100 μM). Following treatment, MTT (0.5 mg/mL) was added to the medium and cells were further incubated for 2 h at 37 °C. Cells were lysed with DMSO and the absorbance of the formazan solution was measured at 550 nm with a plate reader (1420 multilabel counter, Victor, Jügesheim, Germany). […] The experiment was performed in triplicate. Values are expressed as the mean ± SD of at least three independent experiments.

MCF-7 cells [2] = test: Mitochondrial membrane potential (JC-1, flow cytometry), MCF-7; conditions: MCF-7, 72 h, 24 at 10 or 25 μM, 31 at 25 μM
Description: A decrease in mitochondrial potential is one of the earliest hallmarks of apoptosis. A common method for indication of cells with high and low Δψm is flow cytometry combined with specific fluorescent probes, such as JC-1 (5,5′,6,6′-tetrachloro-1,1′,3,3′-tetraethylbenzimidazolylcarbocyanine iodide). JC-1 accumulates in mitochondria and forms complexes (J aggregates) with red fluorescence in healthy cells with a normal ΔΨm, whereas in apoptotic cells with a low ΔΨm exists as a monomer with green fluorescence.
Analyzed cells were seeded into wells of a 24-well plate at a density of 5 × 10^4 cells in 1000 µL, incubated overnight, and then the medium was exchanged for dilutions of reagents 24 and 31. Before the end of 72 h of incubation, MitoProbe JC-1 (25 µM) was added into each plate well. Carbonyl cyanide m-chlorophenylhydrazone CCCP (200 nM) as the mitochondrial oxidative phosphorylation uncoupler was added into the positive control 15 min before JC-1 was added. After 30 min of JC-1 staining, cells were washed with PBS and then trypsinized (Corning® 25-053CI). Cells suspended in PBS were analyzed by flow cytometry at λ excitation (ex) = 488 nm and λ emission (em) = 525/570 nm (LSR II BD Biosciences, San Jose, CA, USA).

MCF-7 cells [3] = test: Phosphatidylserine translocation (Annexin V-FITC/PI), MCF-7
Description: as §1, §2, §3

MCF-7 cells [4] = test: Cell cycle distribution by flow cytometry, MCF-7; conditions: for cells in sub-G1 phase: 72 h
Protocol: The cell cycle distribution was measured by flow cytometry analysis after incubation of MCF-7, HeLa, and HCT-116 with compounds 24 and 31 for 72 h.

HeLa cells [5] = test: Phosphatidylserine translocation (Annexin V-FITC/PI), HeLa; conditions: 72 h
Description: as §1, §2, §3

MCF-7 cells [6] = test: Cell morphology by light microscopy, MCF-7; conditions: MCF-7, 10 and 25 μM, 72 h
Protocol: (§6) The evaluation of changes in cell morphology has been performed after incubation with compounds 24 and 31 for 72 h using light microscopy.
(§7) The HeLa, MCF-7, and HCT-116 cells were seeded on 24-well plates (5 × 10^4/per well) in 1 mL of medium for 24 h. After that time, cells were treated with 24 and 31 for next 72 h. Cells were treated with 10 µM, 25 µM of 24, or 25 µM of 31. As a control, non-treated cells were used. Morphology of cells was observed after 72 h using light microscope Olympus IX83.

HCT-116 cells [7] = test: Cell morphology by light microscopy, HCT-116; conditions: HCT-116, 10 and 25 μM, 72 h
Protocol: as §6, §7

HCT-116 (colon cancer) = test: MTT cell viability assay, HCT-116
Protocol: as §4, §5

HeLa cells [8] = test: Cell morphology by light microscopy, HeLa; conditions: 10 and 25 μM, 72 h
Protocol: as §6, §7

Cc1cc(S(=O)(=O)NC(N)=NN=C(C=Cc2ccccc2O)c2ccccc2)c(SCc2ccccc2Cl)cc1Cl [Compound 24, 3-{4-chloro-2-[(2-chlorophenyl)methylthio]-5-methylbenzenesulfonyl}-2-[3-(2-hydroxyphenyl)-1-phenylprop-2-enylideneamino]guanidine]
induction of apoptosis (Annexin V-FITC/PI) (HCT-116 cells [1]; HCT-116, 10 μM, 72 h): Induction of apoptosis
population of apoptotic cells (Annexin V-FITC/PI) (HCT-116 cells [1]; HCT-116, 72 h, 24 at 10 or 25 μM, 31 at 25 μM): increased population of apoptotic cells
IC50 (MCF-7 (breast cancer); Homo sapiens, MCF7, MTT, 72 h): 12 ± 0.6 µM
Selectivity Index MCF-7/HaCaT (MCF-7 (breast cancer); MCF-7 versus HaCaT, from IC50 values): 2.7
change of mitochondrial membrane potential (ΔΨm) (MCF-7 cells [2]): remarkable decrease in ΔΨm
induction of apoptosis (Annexin V-FITC/PI) (MCF-7 cells [3]; MCF-7, 10 μM, 72 h): Induction of apoptosis
population of apoptotic cells (Annexin V-FITC/PI) (MCF-7 cells [3]; MCF-7, 72 h, 24 at 10 or 25 μM, 31 at 25 μM): increased population of apoptotic cells
cells in sub-G1 phase (MCF-7 cells [4]; MCF-7, 10 μM): 5.22%
cells in sub-G1 phase (MCF-7 cells [4]; MCF-7, 25 μM): 7.53%
effect on cell cycle distribution (MCF-7 cells [4]; MCF-7, 72 h, 24 at 10 and 25 μM, 31 at 25 μM): no significant effect on the cell cycle distribution
level of late apoptotic cells (Annexin V-FITC/PI) (HeLa cells [5]; 25 μM): significantly increased level of late apoptotic cells
population of apoptotic cells (Annexin V-FITC/PI) (HeLa cells [5]; 24 at 10 or 25 μM, 31 at 25 μM): increased population of apoptotic cells
changes in cell morphology (MCF-7 cells [6]): apoptotic-like changes, such as shrinkage of the cells or detachment from the surface
changes in cell morphology (HCT-116 cells [7]): apoptotic-like changes, such as shrinkage of the cells or detachment from the surface
Selectivity Index HCT-116/HaCaT (HCT-116 (colon cancer); HCT-116 versus HaCaT, from IC50 values): 3.7
IC50 (HCT-116 (colon cancer); Homo sapiens, HCT-116, MTT, 72 h): 9 ± 0.5 µM
changes in cell morphology (HeLa cells [8]): apoptotic-like changes, such as shrinkage of the cells or detachment from the surface
